Reference: US20240002368A1 (QILU REGOR THERAPEUTICS INC., priority 2020, published 2024)

system: STING pathway; assay: IFN β reporter assay (HTRF, 2′3′-cGAMP-stimulated THP1 cells); type: cell-based, human; conditions: Homo sapiens, THP-1, THP1 cells, 5 μM 2′3′-cGAMP, IFN β secretion inhibition; class symbols; read-out: IFN β reporter activity IC50
Description: STING pathway deactivation by the compounds described herein was measured using THP1 cells. The THP1 Cells (obtained from ATCC, Cat #TIB-202) were maintained in RPMI-1640 (Gibco, Cat #22400105), 10% FBS, 1% Pen-Strep, 0.05 mM 2-mercaptoethanol. For STING activation, 2′3′-cGAMP (MW 718.38, obtained from Invivogen) was used and prepared in serum-free RPMI-1640 media. Growth media: RPMI-1640 (HEPES, glutamine), 10% FBS, 1% Pen-Strep, 0.05 mM 2-mercaptoethanol. Assay media: RPMI-1640 (HEPES, glutamine), 0.5% FBS. 2′3′-cGAMP: Dissolve 2′3′-cGAMP to 10 mM stock in H2O.
The cells were prepared and seeded at 100K, 90 μL/well with assay media in cell culture plate (Greiner 655180). The compounds were added in 96-well tissue culture plates by Tecan D300e for a final concentration of 0.00137-3 μM.
Lipo2000/3000 and 2′3′-cGAMP stock solutions were diluted respectively in serum-free RPMI-1640 media. The diluted 2′3′-cGAMP and Lipo (V/V=1:1) were mixed and stood for 15 min at room temperature. 10 μL 2,3-cGAMP/Lipofectamine (10×) was transferred to the 96-well assay plate with a final 2′3′-cGAMP concentration of 5 μM. The cell plates were centrifuged at 1000 rpm for 5 min after incubating at 37° C., 5% CO2 overnight.
All reagents (human IFN beta kit, Cisbio 62HIFNBPEG) were warmed to room temperature for at least 30 min before the assay. The instructions of the kit were followed to prepare the detection media. 14 μL of cell supernatants was transferred into their dedicated wells in 384-well plate. Then 2 μL of the activation reagent solution and 4 μL of the mixed antibody solution were added to all wells. The plate was sealed and incubated for 3 h at room temperature.
The HTRF signal was read in Envision (PerkinElmer). IFN β reporter activity was then measured. The calculated ratio is the signal at 665 nm/signal at 615 nm. IC50 values are calculated by using standard methods known in the art.

With `CC(NCC(F)(F)F)c1cc2c(cc1F)c(C(=O)Nc1c[nH]c3ccc(F)cc13)cn2C` (racemic) [Example 107, rac-5-fluoro-N-(5-fluoro-1H-indol-3-yl)-1-methyl-6-[1-(2,2,2-trifluoroethylamino)ethyl]indole-3-carboxamide] as the molecule, how does the IC50 read?
The IC50 was 50 to 200 nM.

For `O=C(Nc1c[nH]c2c(F)cccc12)c1n[nH]c2cc(C(F)(F)F)ccc12` [Example 6], which IC50 is on record?
The IC50 was 200 to 1000 nM.

Which IC50 does the source give for `O=C(Nc1c[nH]c2ccc(F)cc12)c1n[nH]c2ncc(Br)cc12` [Example 7] here?
Its IC50 is 50 to 200 nM.

How did the IC50 turn out when `O=C(Nc1c[nH]c2ccc(F)cc12)c1n[nH]c2cc(C(F)(F)F)ccc12` [Example 8] was run?
The IC50 was under 50 nM.

For `O=C(Nc1c[nH]c2ccccc12)c1n[nH]c2cc(Br)ccc12` [Example 9], which IC50 is on record?
The IC50 was under 50 nM.

Which IC50 does the source give for `O=C(Nc1c[nH]c2ccc(C(F)(F)F)cc12)c1n[nH]c2cc(C(F)(F)F)ccc12` [Example 10] here?
The IC50 was 50 to 200 nM.

Which IC50 does the source give for `O=C(Nc1c[nH]c2ccc(F)cc12)c1n[nH]c2cc(OC(F)(F)F)ccc12` [Example 11] here?
The IC50 was 200 to 1000 nM.

For `O=C(Nc1c[nH]c2ccc(F)cc12)c1n[nH]c2cc(Cl)c(Cl)cc12` [Example 12], which IC50 is on record?
The IC50 was under 50 nM.

With `CS(=O)(=O)c1ccc2c(C(=O)Nc3c[nH]c4ccc(F)cc34)n[nH]c2c1` [Example 13] as the molecule, how does the IC50 read?
Its IC50 is over 1000 nM.

`C#Cc1ccc2c(C(=O)Nc3c[nH]c4ccc(F)cc34)n[nH]c2c1` [Example 14] was tested. Which IC50 did it give?
Its IC50 is 50 to 200 nM.

How did the IC50 turn out when `O=C(Nc1c[nH]c2ccc(Br)cc12)c1n[nH]c2cc(C(F)(F)F)ccc12` [Example 15] was run?
Its IC50 is under 50 nM.

With `O=C(Nc1c[nH]c2ccccc12)c1n[nH]c2cc(C3CCOCC3)ccc12` [Example 16] as the molecule, how does the IC50 read?
Its IC50 is 50 to 200 nM.

How did the IC50 turn out when `O=C(Nc1c[nH]c2cc(F)c(F)cc12)c1n[nH]c2cc(C(F)(F)F)ccc12` [Example 17] was run?
Its IC50 is under 50 nM.

`Cn1cc(C(=O)Nc2c[nH]c3ccc(P(C)(C)=O)cc23)c2ccc(C(F)(F)F)cc21` [Example 21] was tested. Which IC50 did it give?
Its IC50 is over 1000 nM.

`O=C(Nc1c[nH]c2ccc(F)cc12)c1cnn2cc(Cl)ccc12` [Example 23] was tested. Which IC50 did it give?
The IC50 was 200 to 1000 nM.

With `O=C(Nc1c[nH]c2ccc(F)cc12)c1cnn2cc(Br)ccc12` [Example 24] as the molecule, how does the IC50 read?
The IC50 was under 50 nM.

Which IC50 does the source give for `O=C(Nc1c[nH]c2cccc(F)c12)c1n[nH]c2cc(C(F)(F)F)ccc12` [Example 26] here?
Its IC50 is 50 to 200 nM.

How did the IC50 turn out when `COC(=O)c1ccc2c(C(=O)Nc3c[nH]c4ccc(F)cc34)n[nH]c2c1` [Example 27] was run?
Its IC50 is over 1000 nM.

With `O=C(Nc1c[nH]c2ccc(F)cc12)c1n[nH]c2cc(C3CCOCC3)ccc12` [Example 28] as the molecule, how does the IC50 read?
The IC50 was 50 to 200 nM.

For `O=C(Nc1c[nH]c2ccc(F)cc12)c1n[nH]c2cc(C3=CCOCC3)ccc12` [Example 29], which IC50 is on record?
Its IC50 is 50 to 200 nM.

How did the IC50 turn out when `O=C(Nc1c[nH]c2ccccc12)c1n[nH]c2cc(C(F)(F)F)ccc12` [Example 31] was run?
Its IC50 is under 50 nM.

How did the IC50 turn out when `COC(=O)c1ccc2[nH]cc(NC(=O)c3cn(C)c4cc(C(F)(F)F)ccc34)c2c1` [Example 33] was run?
Its IC50 is 50 to 200 nM.

With `Cn1cc(C(=O)Nc2c[nH]c3ccc(C(N)=O)cc23)c2ccc(C(F)(F)F)cc21` [Example 34] as the molecule, how does the IC50 read?
The IC50 was over 1000 nM.

With `Cn1cc(C(=O)Nc2c[nH]c3ccc(S(C)(=O)=O)cc23)c2ccc(C(F)(F)F)cc21` [Example 37] as the molecule, how does the IC50 read?
The IC50 was over 1000 nM.

For `Cn1cc(C(=O)Nc2c[nH]c3ccc(N4CCN(C(=O)OC(C)(C)C)CC4=O)cc23)c2ccc(C(F)(F)F)cc21` [Example 38], which IC50 is on record?
The IC50 was 50 to 200 nM.

For `CN(Cc1ccc2[nH]cc(NC(=O)c3cn(C)c4cc(C(F)(F)F)ccc34)c2c1)C(=O)OC(C)(C)C` [Example 39], which IC50 is on record?
The IC50 was 50 to 200 nM.

How did the IC50 turn out when `Cn1cc(C(=O)Nc2c[nH]c3cc(F)c(Cl)cc23)c2cc(F)c(C3CCOCC3)cc21` [Example 48] was run?
The IC50 was 50 to 200 nM.

For `C[C@H]1COCCN1c1cc2c(cc1F)c(C(=O)Nc1c[nH]c3ccc(F)cc13)cn2C` [Example 49], which IC50 is on record?
Its IC50 is 200 to 1000 nM.

Which IC50 does the source give for `C[C@@H]1COCCN1c1cc2c(cc1F)c(C(=O)Nc1c[nH]c3ccc(F)cc13)cn2C` [Example 50] here?
Its IC50 is 200 to 1000 nM.

How did the IC50 turn out when `O=C(Nc1c[nH]c2cc(F)c(F)cc12)c1c[nH]c2cc(C(F)(F)F)ccc12` [Example 52] was run?
Its IC50 is under 50 nM.

With `O=C(Nc1c[nH]c2ccc(F)cc12)c1c[nH]c2cc(C(F)(F)F)ccc12` [Example 53] as the molecule, how does the IC50 read?
Its IC50 is under 50 nM.

`Cn1cc(C(=O)Nc2c[nH]c3ccc(C#N)cc23)c2ccc(C3=CCOCC3)cc21` [Example 54] was tested. Which IC50 did it give?
Its IC50 is 200 to 1000 nM.

For `Cn1cc(C(=O)Nc2c[nH]c3ccc(C#N)cc23)c2cc(Cl)c(C3=CCOCC3)cc21` [Example 55], which IC50 is on record?
The IC50 was 50 to 200 nM.

For `O=C(Nc1c[nH]c2ccccc12)c1cc2ccc(C(F)(F)F)cc2[nH]1` [Example 56], which IC50 is on record?
Its IC50 is 50 to 200 nM.

same assay, conditions: Homo sapiens, THP-1, THP1 cells, 5 μM 2′3′-cGAMP, IFN β secretion inhibition; numeric values (comparators); read-out: IFN β reporter activity IC50

How did the IC50 turn out when `O=C(Nc1c[nH]c2cc(F)c(F)cc12)c1cnc2[nH]ncc2c1` [Comparator A, reference compound] was run?
Its IC50 is over 30000 nM.

Which IC50 does the source give for `O=C(Nc1c[nH]c2cc(F)c(F)cc12)c1nc2ccncc2s1` [Comparator B, reference compound] here?
Its IC50 is over 3000 nM.

`Cn1cc(NC(=O)c2cn(C)c3cc(C(F)(F)F)ccc23)c2cc(C#N)ccc21` [Comparator D, reference compound] was tested. Which IC50 did it give?
The IC50 was 10000 nM.

Which IC50 does the source give for `CN(C(=O)c1n[nH]c2cc(C(F)(F)F)ccc12)c1c[nH]c2ccc(F)cc12` [Comparator E, reference compound] here?
Its IC50 is 12000 nM.

same assay, conditions: Homo sapiens, THP-1, read-out: IFN β reporter activity IC50

`Cc1[nH]c2ccc(F)cc2c1NC(=O)c1cn(C)c2cc(C(F)(F)F)ccc12` [Comparator C, reference compound] was tested. Which IC50 did it give?
Its IC50 is 11000 nM.

Which IC50 does the source give for `Cn1nc(C(=O)Nc2c[nH]c3ccccc23)c2ccc(C(F)(F)F)cc21` [Example 1, N-(1H-indol-3-yl)-1-methyl-6-(trifluoromethyl)indazole-3-carboxamide] here?
The IC50 was 50 to 200 nM.

How did the IC50 turn out when `Cn1nc(C(=O)Nc2c[nH]c3ccccc23)c2cc(Br)ccc21` [Example 3] was run?
The IC50 was 50 to 200 nM.

How did the IC50 turn out when `Cn1nc(C(=O)Nc2c[nH]c3ccccc23)c2ccc(Br)cc21` [Example 4] was run?
The IC50 was 50 to 200 nM.

For `CC(C)n1nc(C(=O)Nc2c[nH]c3ccccc23)c2ccc(C(F)(F)F)cc21` [Example 5], which IC50 is on record?
Its IC50 is 200 to 1000 nM.

Which IC50 does the source give for `Cn1cc(C(=O)Nc2c[nH]c3ccccc23)c2ccc(C(F)(F)F)cc21` [Example 18] here?
Its IC50 is 50 to 200 nM.

With `Cn1cc(C(=O)Nc2c[nH]c3ccc(F)cc23)c2ccc(C(F)(F)F)cc21` [Example 20] as the molecule, how does the IC50 read?
The IC50 was under 50 nM.

For `Cn1cc(C(=O)Nc2c[nH]c3ccc(F)cc23)c2cc(C(F)(F)F)cnc21` [Example 22], which IC50 is on record?
Its IC50 is 200 to 1000 nM.

With `O=C(Nc1c[nH]c2ccccc12)c1nn(CC2CC2)c2cc(C(F)(F)F)ccc12` [Example 30] as the molecule, how does the IC50 read?
Its IC50 is 50 to 200 nM.

Which IC50 does the source give for `Cn1cc(C(=O)Nc2c[nH]c3ccc(F)cc23)c2ccc(Cl)cc21` [Example 32] here?
Its IC50 is under 50 nM.

Which IC50 does the source give for `Cn1cc(C(=O)Nc2c[nH]c3ccc(F)cc23)c2ccccc21` [Example 35] here?
Its IC50 is 200 to 1000 nM.

With `Cn1cc(C(=O)Nc2c[nH]c3ccc(C#N)cc23)c2ccc(C(F)(F)F)cc21` [Example 36] as the molecule, how does the IC50 read?
The IC50 was under 50 nM.

`N#Cc1ccc2[nH]cc(NC(=O)c3cn(C4CC4)c4nc(OCC(F)(F)F)ccc34)c2c1` [Example 41] was tested. Which IC50 did it give?
The IC50 was 50 to 200 nM.

`N#Cc1ccc2[nH]cc(NC(=O)c3cn(C4CC4)c4nc(O[C@H]5CCOC5)ccc34)c2c1` [Example 42] was tested. Which IC50 did it give?
The IC50 was 200 to 1000 nM.

For `N#Cc1ccc2[nH]cc(NC(=O)c3cn(C4CC4)c4nc(O[C@@H]5CCOC5)ccc34)c2c1` [Example 43], which IC50 is on record?
The IC50 was 200 to 1000 nM.

With `COCCOc1ccc2c(C(=O)Nc3c[nH]c4ccc(F)cc34)cn(C3CC3)c2n1` [Example 46] as the molecule, how does the IC50 read?
The IC50 was 50 to 200 nM.

`COCCOc1ccc2c(C(=O)Nc3c[nH]c4ccc(C#N)cc34)cn(C3CC3)c2n1` [Example 47] was tested. Which IC50 did it give?
The IC50 was 200 to 1000 nM.

For `COc1ccc2[nH]cc(NC(=O)c3cn(C)c4cc(C(F)(F)F)ccc34)c2c1` [Example 51], which IC50 is on record?
Its IC50 is 50 to 200 nM.

same assay, conditions: THP1 cells, 5 μM 2′3′-cGAMP, IFN β secretion inhibition; class symbols; read-out: IFN β reporter activity IC50

Which IC50 does the source give for `O=C(Nc1c[nH]c2ccccc12)c1n[nH]c2cc(C(F)(F)F)ccc12` [Example 2] here?
The IC50 was 50 to 200 nM.
